According to PMC4183567, “Cysteine Transport through Excitatory Amino Acid Transporter 3 (EAAT3)” (PLoS ONE, 2014):
Like-named read-outs stand apart in the source and are kept apart here.

Assays:
EAAT3 = biological target: T1, EAAT3 (Homo sapiens, UniProt P43005); assay: mEGFPpH fluorescence imaging of intracellular pH in HEK293 cells co-expressing EAAT3
T1 sequence (P43005 1-524): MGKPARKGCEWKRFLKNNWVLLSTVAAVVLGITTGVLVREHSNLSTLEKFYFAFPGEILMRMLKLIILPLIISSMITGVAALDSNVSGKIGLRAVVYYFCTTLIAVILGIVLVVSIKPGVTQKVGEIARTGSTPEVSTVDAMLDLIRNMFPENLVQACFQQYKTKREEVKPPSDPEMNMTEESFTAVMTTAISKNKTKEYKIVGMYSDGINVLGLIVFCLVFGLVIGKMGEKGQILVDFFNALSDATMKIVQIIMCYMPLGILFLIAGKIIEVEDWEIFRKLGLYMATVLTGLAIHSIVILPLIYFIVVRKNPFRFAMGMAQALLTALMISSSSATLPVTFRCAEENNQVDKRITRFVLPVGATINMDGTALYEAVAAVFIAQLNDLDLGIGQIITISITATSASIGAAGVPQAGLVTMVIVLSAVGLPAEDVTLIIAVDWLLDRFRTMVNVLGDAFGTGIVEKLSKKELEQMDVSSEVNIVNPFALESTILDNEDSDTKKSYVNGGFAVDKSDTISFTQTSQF
Description: Cells expressing mEGFPpH were imaged with a Zeiss Axiovert 135T inverted microscope with a 40X NeoFluar oil immersion objective (NA1.3). A Lambda DG4 (Sutter Instrument Co.) equipped with a xenon arc lamp was used for high-speed excitation wavelength switching. Images were collected using either a Quantix (Roper Scientific, Tucson, AZ) or an Orca ER (Hammamatsu Co.) cooled CCD. For pH imaging experiments, the fluorescence filters (Omega Optical) were: excitation 405±20 and 485±7.5; dichroic 400-480-585DLRP; emission 510±11.5. Software control and data acquisition were accomplished using Axon Imaging Workbench (INDEC Biosystems) or OpenLab acquisition software (Improvision, Perkin Elmer). Cells were incubated at room temperature with continuous perfusion using standard buffer containing (in mM): 146 NaCl, 5 KCl, 5 HEPES, 2.5 CaCl2 and 1.2 MgCl2 at pH 7.35 with additions (substrates etc.) as indicated in figure legends. Acquisition exposure times were identical for both 405 nm and 485 nm excitation wavelengths adjusted so that the 510 emission was not saturated for either excitation wavelength. Prior to perfusion with buffers containing substrates, cells were perfused in standard buffer to achieve a stable base line. Fluorescence was reported as the ratio of fluorescence at 510 nm by excitation with 485 and 405 nm wavelengths (F485/F405).

EAAT3 and ASCT1 [1] = biological target: T2, EAAT3 and ASCT1 (Homo sapiens, UniProt P43005); assay: Release of preloaded [3H]-L-glutamate from Xenopus oocytes co-expressing EAAT3 and ASCT1; type: cell-based
T2 construct: expressed in transfected cells; host or cells: Xenopus oocytes
T2 sequence (P43005 1-524): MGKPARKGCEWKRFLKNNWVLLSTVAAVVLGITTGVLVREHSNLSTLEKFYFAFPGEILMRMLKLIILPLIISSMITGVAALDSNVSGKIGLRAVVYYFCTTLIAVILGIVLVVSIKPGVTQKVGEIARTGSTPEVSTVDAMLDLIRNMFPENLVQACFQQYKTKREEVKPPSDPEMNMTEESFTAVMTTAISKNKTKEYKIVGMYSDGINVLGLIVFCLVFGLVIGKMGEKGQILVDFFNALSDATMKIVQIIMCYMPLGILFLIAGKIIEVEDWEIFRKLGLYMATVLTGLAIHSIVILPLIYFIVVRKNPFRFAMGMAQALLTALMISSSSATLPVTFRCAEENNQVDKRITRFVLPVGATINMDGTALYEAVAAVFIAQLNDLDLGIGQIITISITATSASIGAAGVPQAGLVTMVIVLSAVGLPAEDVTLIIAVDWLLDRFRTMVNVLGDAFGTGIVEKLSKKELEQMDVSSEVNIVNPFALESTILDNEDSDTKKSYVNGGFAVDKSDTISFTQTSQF
Description: mRNA from linearized pOTV-EAAT1, pOTV-EAAT2 and pOTV-EAAT3 was generated as previously described and resuspended in RNAase-free water and used for oocytes injections. Xenopus oocytes where injected with 50 nl of mRNA and incubated at 18°C in 96 mM NaCl, 2 mM KCl, 1.8 mM CaCl2, 1.0 mM MgCl2, 5 mM HEPES, pH 7.4 (ND96) supplemented with 2.5 mM Sodium Pyruvate and Gentamicyn for 2 to 3 days prior to using in electrophysiological recordings and radio-labeled transport experiments.
(§1) Oocytes were washed 3 times in ND96 buffer followed by incubation for 10 min with non-radiolabeled substrates as indicated. The supernatant was removed and collected for scintillation counting, while the oocytes were lysed in 1% sodium dodecylsulfate (SDS). The oocytes lysate and supernatant were counted separately by liquid scintillation counting to determine both retained and released radioactivity respectively. Percent of released radioactivity was determined as a function of the released/(retained + released).

EAAT3 and ASCT1 [2] = biological target: T2, EAAT3 and ASCT1; assay: Release of preloaded [35S]-L-cysteine from Xenopus oocytes co-expressing EAAT3 and ASCT1; type: cell-based; settings: TBOA co-incubation
Description: mRNA from linearized pOTV-EAAT1, pOTV-EAAT2 and pOTV-EAAT3 was generated as previously described and resuspended in RNAase-free water and used for oocytes injections.
as §1

EAATs = settings: very low affinity; cited from earlier work

N[C@H](CC(=O)O)C(=O)O [D-aspartate]
mEGFPpH fluorescence change (EAAT3; 100 µM perfusion, EAAT3 HEK293 cells): fluorescence decrease similar to that observed for 100 µM glutamate

Cl.N [NH4Cl]
average intracellular pH (pHi) (HEK293 cells; after NH4Cl washout): ~6.5 | average intracellular pH (pHi) (HEK293 cells; during 50 mM NH4Cl perfusion, initial pHi ~7.4, n = 4): ~8.5

N[C@H](C(=O)O)[C@H](OCc1ccccc1)C(=O)O [TBOA]
effect on [3H]-L-glutamate release induced by K+ containing buffer (EAAT3 and ASCT1 [1]; TBOA co-application, data not shown): blocking this release | effect on [3H]-L-glutamate release induced by 100 µM L-glutamate (EAAT3 and ASCT1 [1]; TBOA co-incubation): blocked | effect on [3H]-L-glutamate release induced by cysteine (EAAT3 and ASCT1 [1]; TBOA co-incubation): blocked | effect on [35S]-L-cysteine release in presence of 100 µM glutamate (EAAT3 and ASCT1 [2]): not significantly inhibited | effect on [35S]-cysteine release induced by 300 µM cysteine (EAAT3 and ASCT1 [2]): not inhibited | effect on cysteine-induced mEGFPpH fluorescence increase (EAAT3; 100 µM TBOA co-applied with 1 mM cysteine): blocked | effect on glutamate-induced mEGFPpH fluorescence changes (EAAT3; co-application with glutamate, data not shown): blocked

C[C@H](N)C(=O)O [alanine]
affinity for the transporters (EAATs): > 1 mM
